Experimental data as given in patent EP4624465A1, “COMPOUND SERVING AS DDR1 KINASE INHIBITOR, AND MEDICINE” (Nippon Shinyaku Co., Ltd., priority 2022, dated 2024).

How the values were obtained:
DDR1 kinase [1] = target: T1, DDR1 kinase (Homo sapiens, UniProt Q08345); test: Evaluation of DDR1 kinase inhibition (LANCE Ultra TR-FRET kinase assay); type: biochemical; set-up: purchased Carna Biosciences 08-113; conditions: DDR1 protein 0.5 nM, LANCE Ultra ULight-poly GAT substrate, 2 hours at room temperature, duplicate; read-out: DDR-1 IC50
Target sequence in this assay (Q08345 19-876 isoform Q08345-2 limits assumed): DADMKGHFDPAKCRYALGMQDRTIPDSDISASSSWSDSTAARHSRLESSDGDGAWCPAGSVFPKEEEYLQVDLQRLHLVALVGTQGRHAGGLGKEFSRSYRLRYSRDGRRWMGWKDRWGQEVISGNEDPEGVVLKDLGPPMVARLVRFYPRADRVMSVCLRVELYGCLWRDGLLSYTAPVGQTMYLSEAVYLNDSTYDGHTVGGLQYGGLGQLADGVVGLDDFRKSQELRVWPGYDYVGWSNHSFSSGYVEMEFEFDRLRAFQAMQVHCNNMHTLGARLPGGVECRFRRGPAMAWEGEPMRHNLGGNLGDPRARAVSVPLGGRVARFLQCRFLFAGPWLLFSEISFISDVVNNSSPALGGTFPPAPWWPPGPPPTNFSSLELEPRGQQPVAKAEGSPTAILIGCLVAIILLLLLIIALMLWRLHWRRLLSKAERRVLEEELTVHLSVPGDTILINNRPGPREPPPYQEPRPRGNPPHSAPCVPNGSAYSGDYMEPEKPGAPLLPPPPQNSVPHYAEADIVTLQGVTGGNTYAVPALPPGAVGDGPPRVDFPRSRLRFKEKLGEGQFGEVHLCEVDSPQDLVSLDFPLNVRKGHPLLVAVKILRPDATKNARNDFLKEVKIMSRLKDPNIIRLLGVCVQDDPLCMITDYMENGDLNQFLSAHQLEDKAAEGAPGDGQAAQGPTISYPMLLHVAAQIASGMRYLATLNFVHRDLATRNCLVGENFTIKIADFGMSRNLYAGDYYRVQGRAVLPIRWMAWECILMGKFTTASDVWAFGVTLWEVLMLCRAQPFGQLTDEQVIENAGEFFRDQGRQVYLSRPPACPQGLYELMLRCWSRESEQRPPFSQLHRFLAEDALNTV

DDR1 kinase [2] = target: T1, DDR1 kinase; test: Evaluation of DDR1 kinase inhibition in DDR1-expressing U2OS cells (type I collagen stimulation, PathHunter detection); type: cell-based; set-up: host or cells: U2OS; conditions: type I collagen 50 µg/mL stimulation, duplicate, read-out: DDR-1 IC50
Target sequence in this assay (Q08345 19-913): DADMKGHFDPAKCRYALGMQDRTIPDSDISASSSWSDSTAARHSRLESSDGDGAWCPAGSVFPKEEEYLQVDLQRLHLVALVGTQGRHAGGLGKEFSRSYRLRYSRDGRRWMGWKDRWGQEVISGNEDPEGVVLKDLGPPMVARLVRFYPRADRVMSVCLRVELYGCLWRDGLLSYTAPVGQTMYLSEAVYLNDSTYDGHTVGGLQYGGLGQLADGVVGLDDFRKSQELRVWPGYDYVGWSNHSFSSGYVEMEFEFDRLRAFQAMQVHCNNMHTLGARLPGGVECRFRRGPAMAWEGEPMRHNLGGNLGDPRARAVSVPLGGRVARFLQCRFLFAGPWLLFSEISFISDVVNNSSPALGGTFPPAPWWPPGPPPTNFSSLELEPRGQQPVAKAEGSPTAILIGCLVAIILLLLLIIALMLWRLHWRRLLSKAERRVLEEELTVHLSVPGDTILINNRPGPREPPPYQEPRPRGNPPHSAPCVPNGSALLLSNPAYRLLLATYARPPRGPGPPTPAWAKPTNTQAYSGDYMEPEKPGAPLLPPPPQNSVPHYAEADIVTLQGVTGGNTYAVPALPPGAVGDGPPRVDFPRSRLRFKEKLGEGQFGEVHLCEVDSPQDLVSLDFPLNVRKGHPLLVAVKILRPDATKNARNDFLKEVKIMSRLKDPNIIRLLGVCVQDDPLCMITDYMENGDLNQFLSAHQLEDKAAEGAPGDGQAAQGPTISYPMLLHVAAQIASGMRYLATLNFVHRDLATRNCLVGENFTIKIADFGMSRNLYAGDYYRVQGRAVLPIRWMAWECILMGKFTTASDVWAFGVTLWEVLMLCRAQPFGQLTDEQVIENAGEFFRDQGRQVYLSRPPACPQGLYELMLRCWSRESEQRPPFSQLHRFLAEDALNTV

[3] = system: anti-glomerular basement membrane antibody-induced nephritis model; test: In vivo drug efficacy in an anti-glomerular basement membrane antibody-induced nephritis model (urinary albumin); conditions: twice daily for 7 days, WKY/NCrlCrlj rats, antibody untreated group = 0%, medium-treated group = 100%

| SMILES | IC50 (DDR1 kinase [1]) | IC50 (DDR1 kinase [2]) | Amount (%) of albumin in urine compared with medium-treated group ([3]; Dose 200 mg/kg) | Amount (%) of albumin in urine compared with medium-treated group ([3]; Dose 100 mg/kg) |
| --- | --- | --- | --- | --- |
| CCN(CC)C(=O)Cn1nc(C2CN(C(=O)c3cc(N)ncc3F)C2)c2ccccc21 [Compound E-263, 2-{3-[1-(2-amino-5-fluoropyridine-4-carbonyl)azetidin-3-yl]-1H-indazol-1-yl}-N,N-diethylacetamide] | 0.015 µM | 0.065 µM | – | – |
| CN(CC(F)F)C(=O)Cn1nc(C2CN(C(=O)c3cc(N)ncc3F)C2)c2ccccc21 [Compound E-269, 2-{3-[1-(2-amino-5-fluoropyridine-4-carbonyl)azetidin-3-yl]-1H-indazol-1-yl}-N-(2,2-difluoroethyl)-N-methylacetamide] | 0.0048 µM | 0.038 µM | – | – |
| Nc1cc(C(=O)N2CC(c3nn(CC(=O)N4CCC[C@H]4C(F)(F)F)c4cc(F)ccc34)C2)c(F)cn1 [Compound E-275, 2-{3-[1-(2-amino-5-fluoropyridine-4-carbonyl)azetidin-3-yl]-6-fluoro-1H-indazol-1-yl}-1-[(2S)-2-(trifluoromethyl)pyrrolidin-1-yl]ethan-1-one] | 0.0048 µM | 0.021 µM | – | – |
| CN(CC(F)(F)F)C(=O)Cn1nc(C2CN(C(=O)c3nc(N)ncc3F)C2)c2ccccc21 [Compound E-276, 2-{3-[1-(2-amino-5-fluoropyrimidine-4-carbonyl)azetidin-3-yl)-1H-indazol-1-yl}-N-methyl-N-(2,2,2-trifluoroethyl)acetamide] | 0.019 µM | 0.43 µM | – | – |

Now those with a lower IC50 (DDR1 kinase [1]), led by results:

| IC50 (DDR1 kinase [1]) | IC50 (DDR1 kinase [2]) | SMILES | Amount (%) of albumin in urine compared with medium-treated group ([3]; Dose 200 mg/kg) | Amount (%) of albumin in urine compared with medium-treated group ([3]; Dose 100 mg/kg) |
| --- | --- | --- | --- | --- |
| 0.0016 µM | 0.037 µM | Cl.Nc1cc(C(=O)N2CC(c3nn(CC(=O)N4CCC[C@H]4C(F)(F)F)c4cc(F)cc(F)c34)C2)ccn1 [Compound E-2, 2-{3-[1-(2-aminopyridine-4-carbonyl)azetidin-3-yl]-4,6-difluoro-1H-indazol-1-yl}-1-[(2S)-2-(trifluoromethyl)pyrrolidin-1-yl]ethan-1-one hydrochloride] | 73% | – |
| 0.0004 µM | 0.053 µM | Nc1cc(C(=O)N2CC(c3nn(CC(=O)N4CCC[C@H]4C(F)(F)F)c4ccccc34)C2)c(F)cn1 [Compound E-3, 2-{3-[1-(2-amino-5-fluoropyridine-4-carbonyl)azetidin-3-yl]-1H-indazol-1-yl}-1-[(2S)-2-(trifluoromethyl)pyrrolidin-1-yl]ethan-1-one] | – | 67% |
| 0.0014 µM | 0.003 µM | Nc1cc(C(=O)N2CC(c3nn(CC(=O)N4CCC[C@H]4C(F)F)c4ccccc34)C2)c(F)cn1 [Compound E-272, 2-{3-[1-(2-amino-5-fluoropyridine-4-carbonyl)azetidin-3-yl]-1H-indazol-1-yl}-1-[(2S)-2-(difluoromethyl)pyrrolidin-1-yl]ethan-1-one] | – | – |
